Laboratory results published in paper PMC7729195, “Pharmacodynamic Functions of Synthetic Derivatives for Treatment of Methicillin-Resistant Staphylococcus aureus (MRSA) and Mycobacterium tuberculosis” (Frontiers in Microbiology, 2020).
Converted amounts (≈) assume the structure as drawn. “And” between values parts separate entries of the source, which are not always exact repeats. Identical values can stand only once.

Legend:
THP1 = type: cell-based; settings: human, 7 days
Experimental: (§1) Human alveolar epithelial cells (A549), ([Giard et al., 1973]), Madin-Darby canine kidney epithelial cells (MDCK), ([Gaush et al., 1966]), human leukemia cells (THP-1) ([Tsuchiya et al., 1980]), human hepatocellular carcinoma cells (Hep-G2), ([Aden et al., 1979]), and human embryonic kidney cells 293 (HEK293) ([Graham et al., 1977]) were grown and differentiated in complete RPMI (Roswell Park Memorial Institute Medium) and DMEM (Dulbecco’s Modified Eagle’s medium) tissue culture media (RPMIc and DMEMc). To determine toxicity of the AIMS extract library, 2 × 10^5 of each cell type were added to a 96-well plate and left for 48 h at 37°C to adhere. Extract samples at a final concentration of 0.5 mg mL^–1 were added to the wells, then incubated for 7 days in a humidified 5% CO2 incubator at 37°C. Then resazurin (10 μL of 0.05% w/v) was added, and after 4 h, fluorescence measured as described previously. Cell viability was calculated as percentage fluorescence relative to untreated cells.

HepG2 = type: cell-based; settings: human, 7 days
Experimental: as §1

A549 = type: cell-based; settings: human, 7 days
Experimental: as §1

HEK 293 = type: cell-based; settings: human, 7 days
Experimental: as §1

MRSA [1] = test: Minimum bactericidal concentration (MBC) for MRSA; type: cell-based, Staphylococcus aureus; design: unit not given here; settings: sub-culture on agar, 18 h
MRSA [2] = test: Bacterial inhibition assay (resazurin), MIC against MRSA; type: cell-based, Staphylococcus aureus; design: MIC for MRSA: unit not given here; settings: for MIC: Staphylococcus aureus, MRSA, synthetic compounds, 18 h incubation; for MIC for MRSA: Table 6 summary
MRSA [3] = test: Checkerboard assay with vancomycin against MRSA; type: cell-based, Staphylococcus aureus; settings: for FIC / MIC50 / Drug–drug interactions: MRSA; for FIC / Drug–drug interactions: compound with vancomycin; for MIC50: Staphylococcus aureus, compound alone; for Activity against MRSA in combination with vancomycin: vancomycin plus compound
E. coli EC958 = test: Bacterial inhibition assay (resazurin), MIC against E. coli; type: cell-based, Escherichia coli; settings: synthetic compounds, 18 h incubation; for MIC: Escherichia coli, EC958
P. aeruginosa PAO1 = test: Bacterial inhibition assay (resazurin), MIC against P. aeruginosa; type: cell-based, Pseudomonas aeruginosa; settings: synthetic compounds, 18 h incubation; for MIC: Pseudomonas aeruginosa, PAO1
MRSA [4] = test: Time-kill study against MRSA; type: cell-based, Staphylococcus aureus; settings: for Bactericidal character: conclusion of time-kill studies; for Effect of sub-inhibitory combination with vancomycin on MRSA growth: sub-inhibitory combinations with vancomycin; for Concentration at which killing was observed: time-kill, MRSA
M. tuberculosis H37Rv [5] = test: Checkerboard assay with rifampicin against M. tuberculosis; type: cell-based, Mycobacterium tuberculosis; settings: for Drug–drug interactions / FIC: M. tuberculosis, compound with rifampicin; for MIC50: Mycobacterium tuberculosis, H37RV, read-out: Compound alone MIC50 for M. tuberculosis
resistant strains = test: MIC against resistant strains; type: cell-based; settings: read-out: MIC against resistant strains
[6] = test system: A549, THP-1, HepG2 and HEK 293 cell lines; type: cell-based, human
Experimental: as §1

TB. H37Rv = test: Minimum bactericidal concentration (MBC) for TB; type: cell-based, Mycobacterium tuberculosis; design: unit not given here; settings: sub-culture on agar, 7 days
M. tuberculosis H37Rv [7] = test: Bacterial inhibition assay (resazurin), MIC against M. tuberculosis; type: cell-based, Mycobacterium tuberculosis; design: MIC for TB. H37Rv: unit not given here; settings: for MIC: Mycobacterium tuberculosis, H37RV, 168 h; for MIC / MIC M. tuberculosis: synthetic compounds, 7 days incubation; for MIC for TB. H37Rv: Table 6 summary
M. tuberculosis = test: Time-kill study against M. tuberculosis; type: cell-based, Mycobacterium tuberculosis; settings: for Effect on bacterial viability: compound treatment, day 6; for Killing effect with rifampicin: rifampicin plus compound, day 7 of treatment
Experimental: Time-kill experiments were performed by culturing MRSA and M. tuberculosis in liquid medium in the presence of six synthesized sample concentrations in doubling dilutions ranging from 8 to 0.001 × MIC and 2 × MIC for both bacteria, respectively. Growth curves were initially generated to confirm that bacteria would reach a stable early- to mid-log phase after 2 and 48 h of pre-incubation in antimicrobial-free both medium, respectively. Samples were taken in different incubation times after drug exposure at 0, 2, 4, 6, 8, and 24 h for MRSA and 24, 48 h, and 4 and 6 days for M. tuberculosis and then plated onto agar plates for CFU determination. The experiments were carried out in duplicate and repeated three times.

[8] = compound 12.5 μM plus vancomycin 50 μg mL^–1

## CCCCCCCCN(CCCCCCCC)c1cccc(C)c1 [Compound 1a, N,N-Dioctyl-3-Methylaniline]
THP1
  Minimum toxicity concentration of drug (MTC) THP1: 50 ± 2.0 µM
HepG2
  Minimum toxicity concentration of drug (MTC) HepG2: >100 ± 3.0 µM
A549
  Minimum toxicity concentration of drug (MTC) A549: >100 ± 4.1 µM
HEK 293
  Minimum toxicity concentration of drug (MTC) HEK 293: 50 ± 0.9 µM
MRSA [1]
  MBC for MRSA: 25
MRSA [2]
  MIC: 12.5 ± 1 µM (≈ 4.14 µg/mL)
  MIC for MRSA: 12.5
MRSA [3]
  FIC: 0.45
  MIC50: 12.5 µM
  Activity against MRSA in combination with vancomycin: bactericidal activity
E. coli EC958
  MIC: 12.5 ± 5 µM (≈ 4.14 µg/mL)
P. aeruginosa PAO1
  MIC: 6.2 ± 9 µM (≈ 2.06 µg/mL)
MRSA [4]
  Bactericidal character: strongly bactericidal and concentration dependent
  Effect of sub-inhibitory combination with vancomycin on MRSA growth: substantially inhibited growth of MRSA
M. tuberculosis H37Rv [5]
  Drug–drug interactions: Indifference (0.25–4 indifferent or additive activity)
  FIC: 1.1
  MIC50: 1.5 µM
Resistant strains
  MIC: 6.7 to 20 µM (≈ 2.22 to 6.63 µg/mL)
[6]
  Toxicity against THP1 and/or HEK 293 cells: some toxicity
[6]; human, 7 days
  MTC on all cell lines tested: 50 to 100 µM
TB. H37Rv
  MBC for TB. H37Rv: 25
M. tuberculosis H37Rv [7]
  MIC: 1.5 ± 3 µM (≈ 0.497 µg/mL)
  MIC for TB. H37Rv: 1.5
M. tuberculosis
  Effect on bacterial viability: significant reduction in bacterial viability

## CCCCCCCCN(CCCCCCCC)c1ccc(C)cc1 [Compound 1b, N,N-Dioctyl-4-Methylaniline]
THP1
  Minimum toxicity concentration of drug (MTC) THP1: >100 ± 2.0 µM
HepG2
  Minimum toxicity concentration of drug (MTC) HepG2: >100 ± 0.9 µM
A549
  Minimum toxicity concentration of drug (MTC) A549: >100 ± 3.8 µM
HEK 293
  Minimum toxicity concentration of drug (MTC) HEK 293: >100 ± 6.0 µM
MRSA [1]
  MBC for MRSA: 200
MRSA [2]
  MIC: 100 ± 5.4 µM (≈ 33.2 µg/mL)
  MIC for MRSA: 100
MRSA [3]
  Drug–drug interactions: Indifference (0.25–4 indifferent or additive activity)
  FIC: 1.2
  MIC50: 100 µM
E. coli EC958
  MIC: 100 ± 1 µM (≈ 33.2 µg/mL)
P. aeruginosa PAO1
  MIC: 100 ± 6.5 µM (≈ 33.2 µg/mL)
MRSA [4]; 100 μM
  Time-kill effect against log-phase MRSA: rapidly reduced growth by 1 h post-treatment
MRSA [4]; [8]
  Effect on regrowth of MRSA: substantially reduced regrowth
MRSA [4]
  Effect of sub-inhibitory combination with vancomycin on MRSA growth: substantially inhibited growth of MRSA
M. tuberculosis H37Rv [5]
  Drug–drug interactions: Indifference (0.25–4 indifferent or additive activity)
  FIC: 1.1
  MIC50: 6.25 µM
[6]
  Toxicity against all four cell lines: low toxicity
TB. H37Rv
  MBC for TB. H37Rv: 100
M. tuberculosis H37Rv [7]
  MIC: 25 ± 1 µM (≈ 8.29 µg/mL)
  MIC for TB. H37Rv: 6.25
M. tuberculosis
  Effect on bacterial viability: significant reduction in bacterial viability

## CCCCCCCCN(CCCCCCCC)Cc1ccccc1 [Compound 2a, N-Benzyl-N-Octyloctan-1Amine]
THP1
  Minimum toxicity concentration of drug (MTC) THP1: 6.5 ± 0.8 µM
HepG2
  Minimum toxicity concentration of drug (MTC) HepG2: >100 ± 0.8 µM
A549
  Minimum toxicity concentration of drug (MTC) A549: >100 ± 1.0 µM
HEK 293
  Minimum toxicity concentration of drug (MTC) HEK 293: 50 ± 4.0 µM
MRSA [1]
  MBC for MRSA: 100
MRSA [2]
  MIC: 12.5 ± 0.7 µM (≈ 4.14 µg/mL)
  MIC for MRSA: 12.5
MRSA [3]
  FIC: 0.328 and 0.33
  MIC50: 12.5 µM
  Activity against MRSA in combination with vancomycin: bactericidal activity
E. coli EC958
  MIC: 50 ± 1 µM (≈ 16.6 µg/mL)
P. aeruginosa PAO1
  MIC: 50 ± 1 µM (≈ 16.6 µg/mL)
MRSA [4]; [8]
  Time to bactericidal effect: 1 h
MRSA [4]; compound 1.5 to 0.1 μM plus vancomycin 50 μg mL^–1, at 24 h
  Net-growth of MRSA: up to 102 CFU mL^–1
MRSA [4]
  Bactericidal character: strongly bactericidal and concentration dependent
  Effect of sub-inhibitory combination with vancomycin on MRSA growth: substantially inhibited growth of MRSA
M. tuberculosis H37Rv [5]
  Drug–drug interactions: Indifference (0.25–4 indifferent or additive activity)
  FIC: 1.1
  MIC50: 1.5 µM
[6]
  Toxicity against THP1 and/or HEK 293 cells: some toxicity
TB. H37Rv
  MBC for TB. H37Rv: 25
M. tuberculosis H37Rv [7]
  MIC: 1.5 ± 1 µM (≈ 0.497 µg/mL)
  MIC for TB. H37Rv: 1.5
M. tuberculosis
  Effect on bacterial viability: significant reduction in bacterial viability

## CCCCCCCCCCN(CCCCCC)CCCCCC [Compound 3, N,N-Dihexyldecan-1-Amine]
THP1
  Minimum toxicity concentration of drug (MTC) THP1: 50 ± 5.0 µM
HepG2
  Minimum toxicity concentration of drug (MTC) HepG2: >100 ± 1.0 µM
A549
  Minimum toxicity concentration of drug (MTC) A549: >100 ± 2.0 µM
HEK 293
  Minimum toxicity concentration of drug (MTC) HEK 293: 25 ± 2.0 µM
MRSA [1]
  MBC for MRSA: 12.5
MRSA [2]
  MIC: 12.5 ± 1 µM (≈ 4.07 µg/mL)
  MIC for MRSA: 12.5
MRSA [3]
  Drug–drug interactions: Indifference (0.25–4 indifferent or additive activity)
  FIC: 1.2
  MIC50: 12.5 µM
E. coli EC958
  MIC: 6.2 µM (≈ 2.02 µg/mL)
  MIC E. coli: 6.2 ± 1.0 µM (≈ 2.02 µg/mL)
P. aeruginosa PAO1
  MIC: 3.1 µM (≈ 1.01 µg/mL)
  MIC P. aeruginosa: 3.1 ± 5.0 µM (≈ 1.01 µg/mL)
MRSA [4]
  Bactericidal character: strongly bactericidal and concentration dependent
  Effect of sub-inhibitory combination with vancomycin on MRSA growth: substantially inhibited growth of MRSA
  Concentration at which killing was observed: 12.5 μg mL^–1
M. tuberculosis H37Rv [5]
  FIC: 0.4
  MIC50: 1.5 µM
M. tuberculosis H37Rv [5]; rifampicin plus compound
  Effect against M. tuberculosis in combination with rifampicin: synergistic or bactericidal effects
[6]
  Toxicity against THP1 and/or HEK 293 cells: some toxicity
TB. H37Rv
  MBC for TB. H37Rv: 6.25
M. tuberculosis H37Rv [7]
  MIC: 3.1 µM (≈ 1.01 µg/mL)
  MIC for TB. H37Rv: 1.5
  MIC M. tuberculosis: 3.1 ± 0.7 µM (≈ 1.01 µg/mL)
M. tuberculosis
  Effect on bacterial viability: significant reduction in bacterial viability
  Killing effect with rifampicin: comparable killing effects

## CCCCCCCCN(CCCCCCCC)CCCCCCCC [Compound 13, N,N,N-Trioctylammonium Chloride]
THP1
  Minimum toxicity concentration of drug (MTC) THP1: 3.1 ± 0.7 µM
HepG2
  Minimum toxicity concentration of drug (MTC) HepG2: >100 ± 5.2 µM
A549
  Minimum toxicity concentration of drug (MTC) A549: 50 ± 1.4 µM
HEK 293
  Minimum toxicity concentration of drug (MTC) HEK 293: 6.5 ± 3.0 µM
MRSA [1]
  MBC for MRSA: 100
MRSA [2]
  MIC: 12.5 ± 2.7 µM
  MIC for MRSA: 12.5
MRSA [3]
  Drug–drug interactions: Indifference (0.25–4 indifferent or additive activity)
  MIC50: 12.5 µM
E. coli EC958
  MIC: 25 ± 2 µM
P. aeruginosa PAO1
  MIC: 25 ± 4 µM
MRSA [4]
  Effect of sub-inhibitory combination with vancomycin on MRSA growth: substantially inhibited growth of MRSA
  Concentration at which killing was observed: > 100 μg mL^–1
M. tuberculosis H37Rv [5]
  Drug–drug interactions: Indifference (0.25–4 indifferent or additive activity)
  FIC: 1.1
  MIC50: 0.02 µM
Resistant strains
  MIC: ≥ 0.24 µM
[6]
  Toxicity against THP1 and/or HEK 293 cells: some toxicity
TB. H37Rv
  MBC for TB. H37Rv: 0.39
M. tuberculosis H37Rv [7]
  MIC: 0.02 µM
  MIC for TB. H37Rv: 0.02
  MIC M. tuberculosis: 0.02 ± 1.1 µM
M. tuberculosis
  Killing effect with rifampicin: comparable killing effects

## CN[C@H](CC(C)C)C(=O)N[C@H]1C(=O)N[C@@H](CC(N)=O)C(=O)N[C@H]2C(=O)N[C@H]3C(=O)N[C@H](C(=O)N[C@H](C(=O)O)c4cc(O)cc(O)c4-c4cc3ccc4O)[C@H](O)c3ccc(c(Cl)c3)Oc3cc2cc(c3O[C@@H]2O[C@H](CO)[C@@H](O)[C@H](O)[C@H]2O[C@H]2C[C@](C)(N)[C@H](O)[C@H](C)O2)Oc2ccc(cc2Cl)[C@H]1O [vancomycin, Vancomycin, reference compound]
MRSA [4]; 50 μg mL^–1, after 24h
  Viable count after regrowth: 106 CFU mL^–1
MRSA [4]; 100 μg mL^–1 at 24 h
  Time-kill effect against MRSA: bactericidal effect
MRSA [4]; concentrations up to 50 μg mL^–1
  Time-kill effect against MRSA compared to untreated bacteria: did not have an antibacterial effect
